Experiments:
[1] = tested on: Spinach with GUGA tetraloop (RNA, aptamer) GGGAACACAAUAAUAAAACUUACAAACAAGAAAAAAAAGACGCGACUGAAUGAAAUGGUGAAGGACGGGUCCAGCUGCGUGAGCAGCUUGUUGAGUAGAGUGUGAGCUCCGUAACUAGUCGCGUC; test: on-chip fluorescence; settings: 125 mM KCl, 5 mM MgCl2; loss of fluorescence attributed to misfolding; up to 43.5 μM DFHBI
[2] = tested on: wt Spinach with anchor sequence (in solution) (RNA, aptamer) GGGAACACAAUAAUAAAACUUACAAACAAGAAAAAAAAGACGCGACUGAAUGAAAUGGUGAAGGACGGGUCCAGCUGCUUCGGCAGCUUGUUGAGUAGAGUGUGAGCUCCGUAACUAGUCGCGUC; test: solution binding assay (off chip); settings: buffer and temperature not stated
[3] = tested on: wt Spinach without anchor sequence (in solution) (RNA, aptamer) GACGCGACUGAAUGAAAUGGUGAAGGACGGGUCCAGCUGCUUCGGCAGCUUGUUGAGUAGAGUGUGAGCUCCGUAACUAGUCGCGUC; test: solution binding assay (off chip); settings: buffer and temperature not stated
[4] = tested on: Spinach with GAAA tetraloop (RNA, aptamer) GGGAACACAAUAAUAAAACUUACAAACAAGAAAAAAAAGACGCGACUGAAUGAAAUGGUGAAGGACGGGUCCAGCUGCGAAAGCAGCUUGUUGAGUAGAGUGUGAGCUCCGUAACUAGUCGCGUC; test: on-chip fluorescence titration and melting; settings: 125 mM KCl, 5 mM MgCl2; 40 mM HEPES, 5% DMSO; comparable to UUCG loop; immobilised RNA
[5] = tested on: wt Spinach (87-nt, on chip, with 5' capture tag) (RNA, aptamer) GGGAACACAAUAAUAAAACUUACAAACAAGAAAAAAAAGACGCGACUGAAUGAAAUGGUGAAGGACGGGUCCAGCUGCUUCGGCAGCUUGUUGAGUAGAGUGUGAGCUCCGUAACUAGUCGCGUC; test: on-chip fluorescence titration (mLSI pull-down); settings: 125 mM KCl, 5 mM MgCl2; 40 mM HEPES, 5% DMSO; temperature of this value not stated (19-28°C series); immobilised RNA
[6] = tested on: Spinach U50C (RNA, aptamer) GGGAACACAAUAAUAAAACUUACAAACAAGAAAAAAAAGACGCGACUGAAUGAAAUGGUGAAGGACGGGUCCAGCUGCUUCGGCAGCCUGUUGAGUAGAGUGUGAGCUCCGUAACUAGUCGCGUC; test: on-chip fluorescence titration (mLSI pull-down); settings: 125 mM KCl, 5 mM MgCl2; 40 mM HEPES, 5% DMSO; temperature of this value not stated; immobilised RNA

binding [1]: no
Kd [2]: 680 nM
Kd [3]: 530 nM
binding [4]: yes
Kd [5]: 1180 nM
Kd [6]: 450 nM
Structure (SMILES): CC1=N/C(=C\c2cc(F)c(O)c(F)c2)C(=O)N1C

From publication PMC4627091 (2015)
